Results: publication PMC10303384, “The Effect of Terbinafine and Its Ionic Salts on Certain Fungal Plant Pathogens” (Molecules, 2023)
Several values for one entry are separate records, joined by “and”; a condition that tells them apart may be missing. Equal entries are not always repeated.

Legend:
[1] = test system: B. cinerea on cherry tomatoes; assay: In vivo antifungal bioassay on cherry tomatoes; parameters: species or system Botrytis cinerea; conditions: 20 mg/L; for Diameter of infection (cm) 4 days: 4 days after treatment; for Diameter of infection (cm) 7 days: 7 days after treatment
[2] = test system: Valsa malicola (V. mali); assay: In vitro fungicidal activity, mycelial (hyphae) growth inhibition on PDA; assay type: cell-based
[3] = test system: Botrytis cinerea (B. cinerea); assay: as above; assay type: cell-based; conditions: Botrytis cinerea
[4] = test system: Pyricularia oryzae (P. oryzae); assay: microbe, parasite or virus in culture; assay type: cell-based; conditions: Pyricularia oryzae, P. oryzae
[5] = test system: Alternaria solani (A. solani); assay: In vitro fungicidal activity, mycelial (hyphae) growth inhibition on PDA; assay type: cell-based; conditions: Alternaria solani
[6] = test system: Rhizoctonia solani (R. solani); assay: microbe, parasite or virus in culture; assay type: cell-based; conditions: Rhizoctonia solani
[7] = test system: Fusarium graminearum (F. graminearum); assay: microbe, parasite or virus in culture; assay type: cell-based; conditions: Fusarium graminearum, F. graminearum

SMILES	Diameter of infection (cm) 4 days [1] [cm]	Diameter of infection (cm) 7 days [1] [cm]	EC50 [2]	EC50 [3]	EC50 [4]	EC50 [5]	EC50 [6]	EC50 [7]
COC(=O)Nc1nc2ccccc2[nH]1 [Carbendazim, reference compound]	0.85	0.92						
COC(=O)N(OC)c1ccccc1COc1ccn(-c2ccc(Cl)cc2)n1 [Pyraclostrobin, reference compound]	0.71	0.92	0.79 µg/mL and 2.02 µM	0.12 µg/mL and 310 nM	0.6 µg/mL and 1.54 µM	0.23 µg/mL and 590 nM	0.07 µg/mL and 190 nM	1.43 µg/mL and 3.68 µM
